The values below are quoted from earlier work in PubChem BioAssay AID1259409 (Chemical Carcinogenesis Research Information System (CCRIS), 2018).

The subject of this data set is rodent chemically induced tumor inhibition, incidence and multiplicity. The experiment in a line: CCRIS tumor inhibitor studies. Particulars: Carcinogen: OCHRATOXIN A, 303-47-9, Route [Inhibitor]: ORAL, Species: RAT, Dose [Carcinogen]: 0.4 MG/KG BW 3X/WK FOR LIFETIME, Promoter: NONE.

With `O=S(=O)(O)CCS`, the outcome is given as 0/40 (0%), 0/40 (0%), 0%, not significant (Dose [Inhibitor]: 1 G/L IN DRINKING WATER FOR LIFETIME (STUDY DURATION: LIFETIME), Strain/Sex: DA/FEMALE, Target Tissue: Type of Lesion: URETHRA: TRANSITIONAL CELL CARCINOMA); 0/40 (0%), 0/40 (0%), 0%, not significant (Dose [Inhibitor]: 1 G/L IN DRINKING WATER FOR LIFETIME (STUDY DURATION: LIFETIME), Strain/Sex: DA/FEMALE, Target Tissue: Type of Lesion: URINARY BLADDER: TRANSITIONAL CELL CARCINOMA); 0/20 (0%), 0/20 (0%), 0%, not significant (Dose [Inhibitor]: 1 G/L IN DRINKING WATER FOR LIFETIME (STUDY DURATION: LIFETIME), Strain/Sex: DA/MALE, Target Tissue: Type of Lesion: URETHRA: TRANSITIONAL CELL CARCINOMA); 0/20 (0%), 0/20 (0%), 0%, not significant (Dose [Inhibitor]: 1 G/L IN DRINKING WATER FOR LIFETIME (STUDY DURATION: LIFETIME), Strain/Sex: DA/MALE, Target Tissue: Type of Lesion: URINARY BLADDER: TRANSITIONAL CELL PAPILLOMA); 0/20 (0%), 0/20 (0%), 0%, not significant (Dose [Inhibitor]: 1 G/L IN DRINKING WATER FOR LIFETIME (STUDY DURATION: LIFETIME), Strain/Sex: LEWIS/FEMALE, Target Tissue: Type of Lesion: KIDNEY: TUBULAR CELL ADENOMA); 0/20 (0%), 0/20 (0%), 0%, not significant (Dose [Inhibitor]: 1 G/L IN DRINKING WATER FOR LIFETIME (STUDY DURATION: LIFETIME), Strain/Sex: LEWIS/FEMALE, Target Tissue: Type of Lesion: URETHRA: TRANSITIONAL CELL CARCINOMA). Besides, the outcome by setting is: (Dose [Inhibitor]: 1 G/L IN DRINKING WATER FOR LIFETIME (STUDY DURATION: LIFETIME), Strain/Sex: LEWIS/MALE, Target Tissue: Type of Lesion: KIDNEY: TUBULAR CELL ADENOMA) 0/20 (0%), 0/20 (0%), 0%, not significant; (Dose [Inhibitor]: 1 G/L IN DRINKING WATER FOR LIFETIME (STUDY DURATION: LIFETIME), Strain/Sex: LEWIS/MALE, Target Tissue: Type of Lesion: URETHRA: TRANSITIONAL CELL CARCINOMA) 0/20 (0%), 0/20 (0%), 0%, not significant; (Dose [Inhibitor]: 1 G/L IN DRINKING WATER FOR LIFETIME (STUDY DURATION: LIFETIME), Strain/Sex: LEWIS/MALE, Target Tissue: Type of Lesion: URINARY BLADDER: TRANSITIONAL CELL CARCINOMA) 0/20 (0%), 0/20 (0%), 0%, not significant; (Dose [Inhibitor]: 1 G/L IN DRINKING WATER FOR LIFETIME (STUDY DURATION: LIFETIME), Strain/Sex: LEWIS/MALE, Target Tissue: Type of Lesion: URINARY BLADDER: TRANSITIONAL CELL PAPILLOMA) 0/20 (0%), 0/20 (0%), 0%, not significant; (Dose [Inhibitor]: 1 G/LITER IN DRINKING WATER FOR LIFETIME (STUDY DURATION: LIFETIME), Strain/Sex: DA/FEMALE, Target Tissue: Type of Lesion: KIDNEY: TUBULAR CELL ADENOMA) 0/40 (0%), 0/40 (0%), 0%, not significant; (Dose [Inhibitor]: 1 G/LITER IN DRINKING WATER FOR LIFETIME (STUDY DURATION: LIFETIME), Strain/Sex: DA/FEMALE, Target Tissue: Type of Lesion: KIDNEY: TUBULAR CELL CARCINOMA) 0/40 (0%), 0/40 (0%), 0%, not significant. Besides, the “tumour outcome (control, treated, inhibition, significance)” value is, setting by setting: (Dose [Inhibitor]: 1 G/L IN DRINKING WATER FOR LIFETIME (STUDY DURATION: LIFETIME), Strain/Sex: DA/MALE, Target Tissue: Type of Lesion: KIDNEY: TUBULAR CELL ADENOMA) 1/20 (5%), 0/20 (0%), 100%, not significant; (Dose [Inhibitor]: 1 G/L IN DRINKING WATER FOR LIFETIME (STUDY DURATION: LIFETIME), Strain/Sex: DA/MALE, Target Tissue: Type of Lesion: KIDNEY: TUBULAR CELL CARCINOMA) 6/20 (30%), 2/20 (40%), -33%, not significant; (Dose [Inhibitor]: 1 G/L IN DRINKING WATER FOR LIFETIME (STUDY DURATION: LIFETIME), Strain/Sex: LEWIS/MALE, Target Tissue: Type of Lesion: KIDNEY: TUBULAR CELL CARCINOMA) 2/20 (10%), 1/20 (5%), 50%, not significant.
